Data as given in patent US20230255934A1, “NURR1 RECEPTOR MODULATORS AND USES THEREOF” (The Regents of the University of California, priority 2020, published 2023).
Entries after “also recorded” stand apart in the source; their conditions may differ.

Experiments:
RXRα LBD = target: T1, RXRα LBD (Homo sapiens, UniProt P19793); test: MST binding to RXRα LBD (specificity control)
T1 construct: made in house
T1 sequence (P19793 with tags, fused parts or gaps): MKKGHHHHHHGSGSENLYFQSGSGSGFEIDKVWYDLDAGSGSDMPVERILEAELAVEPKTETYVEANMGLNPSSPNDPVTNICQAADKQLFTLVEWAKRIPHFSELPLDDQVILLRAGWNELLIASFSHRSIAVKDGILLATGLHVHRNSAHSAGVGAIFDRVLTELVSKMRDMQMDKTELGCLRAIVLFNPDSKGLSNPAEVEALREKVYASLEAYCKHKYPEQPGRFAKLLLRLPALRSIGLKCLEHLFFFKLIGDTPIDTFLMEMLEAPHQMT
From the text: The Nurr1 LBD protein, containing the N-terminal “LAP2” sequence that is recognized by a “coumarin ligase”, was expressed and purified using metal affinity and size-exclusion chromatography according to the previously reported protocol, except that the TEV cleavage step and reverse metal affinity chromatography were omitted.^1 The RXRα LBD protein, containing the N-terminal “LAP2” sequence, was expressed and purified identically to the Nurr1 LBD protein with minor modifications. Specifically, the elution of protein from Talon resin was performed by a step gradient of 10 CV each of 50 mM, 100 mM, 200 mM and 300 mM imidazole in 50 mM Tris-HCl buffer containing 300 mM NaCl at pH 7.8. Purity of protein in each fraction was analyzed by SDS PAGE and fractions eluted with 100-300 mM imidazole were pooled and concentrated. […]
Data were collected using the Monolith NT.115 System (Nanotemper), with settings for all samples at 40% excitation power and 40% MST power. The initial fluorescence was recorded for 3 sec and the thermophoresis fluorescence response was recorded for 20 sec. The data was inspected with Palmist software^5, and data points affected by initial fluorescence quenching or photobleaching were eliminated. The fluorescent response for each sample was normalized to the initial fluorescence using Palmist software to provide the values of thermophoresis (Fn). […]

[1] = tested on: Nurr1 (siRNA knockdown) in MN9D cells; test: Nurr1 knockdown (siRNA) assay with qPCR of target genes in MN9D cells; type: cell-based, mouse; conditions: 10 μM, 24 h, Nurr1 siRNA vs control siRNA
Description: Nurr1 knockdown (siRNA) assays were completed according to standard protocols. Briefly, MN9D cells were resuspended in DMEM/F-12 with 5% FBS at 1·10^6 cells/mL, and reverse-transfected with either control or Nurr1 siRNAs (40 nM final concentration) by combining 4 mL of cell suspension with 1 mL of Opti-MEM containing 200 nM siRNA and 10 μL Lipofectamine 2000 (Invitrogen, cat #:11668019). The resulting cell suspension was plated on poly-D-lysine treated six-well plates at 2.5 mL/well, and allowed to incubate for 24 h at 37° C., in 5% CO2 incubator. After 24 hours, the cells were trypsinized, resuspended in DMEM/F-12 with 5% FBS at 2·10^5 cells/mL, mixed with equal volume of 20 μM 5-chloroindole in the same media containing 0.2% DMSO (prepared by diluting DMSO stock of 5-chloroindole (10 mM) in warm DMEM/F-12 with 5% FBS; for the DMSO control an equivalent volume of DMSO was used instead of the compound stock), and immediately re-plated on poly-D-lysine pre-treated 24-well plates at 1-10^5 cells/well and incubated as above. After 24 hours, total RNA was isolated and the target gene transcription assay (qPCR) was performed as described above. Nurr1 siRNA N1 were purchased from Sigma (Cat No. SASI_Mm02_00322368), and the sequences were as follows: 5′-GAA UCA GCU UUC UUA GAA U[dT][dT]-3′ (SEQ ID NO:17) (sense) and 5′-AUU CUA AGA AAG CUG AUU C[dT][dT]-3′ (SEQ ID NO:18) (antisense). […]

## Clc1ccc2[nH]ccc2c1 [5-chloroindole]
RXRα LBD
  Binding to the RXRα LBD (in words): does not exhibit saturable binding
[1]
  Effect on expression of Th and Vmat2 with knockdown of Nurr1: significantly reduced in the presence of Nurr1 siRNA, but not control siRNA; also recorded: inhibited by siRNA specific for Nurr1
